Patent publication US12145931B2, “Substituted pyrrolo[2,3-c]quinolines as antimalarials” (COUNCIL OF SCIENTIFIC AND INDUSTRIAL RESEARCH, priority 2018, dated 2024)

Legend:
[1] = tested on: Plasmodium falciparum 3D7 strain; assay: Anti-malarial screen, parasite growth by SybrGreen staining; format: cell-based; conditions: 60 hours incubation, triplicates; for inhibition at 10 µM / EC50: Plasmodium falciparum, 3D7; for EC50: serial dilution from 10 μM to 1 nM
Experimental: Plasmodium falciparum 3D7 strain from Malaria Research and Reference Reagent Resource Center (ID NO: MRA-102). Plasmodium falciparum (3D7) is cultured in the laboratory as per standard protocols [AzarRadfar, Darío Méndez, Carlos Moneriz, María Linares, Patricia Marín-García, Antonio Puyet, AmaliaDiez & José M Bautista. Synchronous culture of Plasmodium falciparum at high parasitemia levels Nature Protocols 2009, 4, 1899-1915]. When the parasitemia (i.e., percent infection of human RBCs) reaches >15%, 1 mL of culture suspension is layered over 10 mL of 60% percoll (pH and osmolality adjusted using PBS) and centrifuged at 3000 rpm for 5 min using a swing out rotor. This separates late stage parasite (trophozoite and schizont) infected RBC (as a band on top of the percoll cushion) from early stage parasite (ring) infected and uninfected RBCs (as pellet at the bottom of the percoll cushion). The >90% enriched late stage parasite infected RBCs are collected, washed with complete RPMI media and added to a 2% hematocrit RBC suspension such that the final parasitemia is around 2%. The parasites grow in a synchronous manner for at least 2 rounds of asexual cycle (48 hours). This culture is then used for anti-malarial screening as given below.
200 μL of ring stage parasite culture at ˜2% parasitemia (see above) is added to each well in a 96 well plate pre-seeded with the compound of interest at the required concentration. 1 mM and 10 mM stocks dilutions of the compounds are prepared in cell culture grade DMSO, and the final concentration used in the assay is either 10 μM (for identifying molecules affecting parasite growth) or a serial dilution from 10 μM to 1 nM (for estimating the dose response and EC50 value). All compounds are plated in triplicates as biological replicates. Each 96 well plate also includes negative control (compound untreated & DMSO only treated culture) and positive control (standard anti-malarial compounds treated culture). […] After plating, the culture is incubated in standard growth condition for 60 hours, after which the cultures are processed for testing the effect of compounds on parasite growth as given below.
The inventors have standardized a SybrGreen dye based staining protocol for estimating parasite growth, which is a modification of previously published protocol [Plouffe et. al, 2008]. SybrGreen dye binds to DNA and only the DNA bound dye gives a specific fluorescence emission ([…]) when excited ([…]). Since only the parasites have DNA (as human RBCs are devoid of nucleus), the SybrGreensignal is a direct indictor of parasite growth. A standard fluorescent plate reader issued for assay read out, and the staining is done as follows. 25 μL of 10× stock containing of dye and Triton X100 (0.5%) is added to each of 200 μL culture growing in a 96 well plate and mixed well and incubated for 15 min-30 min before reading fluorescence emission using the plate reader at the appropriate wavelength.

[2] = 10 μM compound, ring stage culture ~2% parasitemia

Compound | EC50 [1] [µM] | melting point [°C] | inhibition at 10 µM [1, 2] [%] | Average % growth Inhibition [1, 2] [%]
O=S(=O)(c1ccccc1)n1ccc2c3ccccc3nc(CN(CCO)CCO)c21 [Ic] | > 10 | 98 to 99 | 93.6 | –
O=Cc1nc2ccccc2c2ccn(S(=O)(=O)c3ccccc3)c12 [Compound of formula 3, 3-(phenylsulfonyl)-3H-Pyrrolo[2,3-c]quinoline-4-carbaldehyde] | > 10 | – | 88.3 | –
O=c1c2ccccc2ncn1Cc1nc2ccccc2c2cc[nH]c12 [NCLite-M1, (3-((3H)-pyrrolo[2,3-c]quinoline-4-yl)methyl)quinazolin-4(3H)-one, reference compound] | – | – | – | 9.18
O=S(=O)(c1ccccc1)n1ccc2c3ccccc3nc(CN(Cc3nc4ccccc4c4ccn(S(=O)(=O)c5ccccc5)c34)c3ccccc3)c21 [Ii, N,N-bis((3-(phenylsulfonyl)-3H-pyrrolo[2,3-c]quinolin-4-yl)methyl)aniline] | > 10 | 188 to 190 | 88.3 | –
CCN(CC)Cc1nc2ccccc2c2ccn(S(=O)(=O)c3ccccc3)c12 [Ia, N-ethyl-N-((3-(phenylsulfonyl)-3H-pyrrolo [2,3-c]quinolin-4-yl)methyl)ethanamine] | 0.27 | – | 99.7 | –
O=S(=O)(c1ccccc1)n1ccc2c3ccccc3nc(CN3CCOCC3)c21 [Ig, 4-((3-(phenylsulfonyl)-3H-Pyrrolo[2,3-c]quinolin-4-yl)methyl)morpholine] | 7.86 | 138 to 140 | 79.4 | –
c1ccc(N(Cc2nc3ccccc3c3cc[nH]c23)Cc2nc3ccccc3c3cc[nH]c23)cc1 [Ij, N,N-bis((3H-pyrrolo[2,3-c]quinolin-4-yl)methyl)aniline] | > 10 | 242 to 244 | 84.1 | –
CN(Cc1nc2ccccc2c2ccn(S(=O)(=O)c3ccccc3)c12)c1ccccc1 [Ie, N-methyl-N-((3-(phenylsulfonyl)-3H-pyrrolo[2,3-c]quinolin-4-yl)methyl)aniline] | > 10 | 146 to 148 | 55.5 | –
COc1ccc(N(C)Cc2nc3ccccc3c3ccn(S(=O)(=O)c4ccccc4)c23)cc1 [Ik, 4-methoxy-N-methyl-N-((3-(phenylsulfonyl)-3H-pyrrolo[2,3-c]quinolin-4-yl)methyl)aniline] | > 10 | 48 to 50 | 90.2 | –

Further lines, with some results ahead:

EC50 [1] [µM] | melting point [°C] | Compound | inhibition at 10 µM [1, 2] [%] | Average % growth Inhibition [1, 2] [%]
8.58 | – | CCN(CC)Cc1nc2ccccc2c2cc[nH]c12 [Ib, N-((3H-pyrrolo[2,3-c]quinolin-4-yl)methyl)-N-ethylethanamine] | 97 | –
3.7 | – | Cc1nc2ccccc2c2[nH]ccc12 [In, 4-methyl-1H-pyrrolo[3,2-c]quinoline] | 99.1 | –
1.99 | 148 to 150 | c1ccc2c(c1)nc(CN1CCOCC1)c1[nH]ccc12 [Ih, 4-((3H-pyrrolo[2,3-c]quinolin-4-yl)methyl)morpholine] | 86.8 | –
8.72 | 139 to 141 | CN(Cc1nc2ccccc2c2cc[nH]c12)c1ccccc1 [If, N-((3H-pyrrolo[2,3-c]quinolin-4-yl)methyl)-N-methyl aniline] | 89.9 | –
4.48 | – | OCCN(CCO)Cc1nc2ccccc2c2cc[nH]c12 [Id] | 91.5 | –
0.17 | – | CCN(CC)CCCC(C)N(C)Cc1nc2ccccc2c2cc[nH]c12 (stereo not drawn) [Im, N^4-((3H-pyrrolo [2,3-c]quinolin-4-yl)methyl)-N^1,N^1-diethyl-N^4-methylpentane-1,4-diamine] | 98.5 | –
0.74 | – | COc1ccc(N(C)Cc2nc3ccccc3c3cc[nH]c23)cc1 [Il, N-((3H-pyrrolo[2,3-c]quinolin-4-yl)methyl)-4-methoxy-N-methylaniline] | 94.1 | –
